# Reference: US6737245B1, “Luciferase expression cassettes and methods of use” (priority 1999, dated 2004)
# Type: in vivo
# Settings: four mice, IP at 0, 2, 4 and 6 hr, 500 μl of 0.1% and 0.01%, observed over 24 hours
# Method: Four mice were injected IP at 0, 2, 4 and 6 hr with 500 μl volumes of n-decyl aldehyde at concentrations of 0.1% and 0.01%. Aldehyde solutions were prepared as follows: 100 μl of aldehyde was diluted in 900 μl of ethanol. 10 μl of this 10% solution was then diluted into 990 μl of sterile phosphate buffered saline (PBS) pH 7.4 to give a 0.1% final volume of aldehyde solution. The animals were observed over a 24-hour period.
compound,measurement,value
CCCCCCCCCC=O [n-decyl aldehyde],symptoms of illness or abnormal behavior,None of the mice showed any apparent symptoms of illness or abnormal behavior
